Test results from ChEMBL document CHEMBL1142366, “Synthesis of pyrimidine and quinolone conjugates as a scaffold for dual inhibitors of HIV reverse transcriptase and integrase” (Bioorg Med Chem Lett, 2008).
pEC50, pIC50: −log10 of the molar value.

Assays:
[1] = Inhibition of HIV integrase; design: species or system Human immunodeficiency virus
[2] = test system: Human immunodeficiency virus; assay: Antiviral activity against HIV by cell based assay; format: functional, organism-based; conditions: Human immunodeficiency virus 1
[3] = Inhibition of HIV reverse transcriptase; design: species or system Human immunodeficiency virus

| pIC50 [1] | pEC50 [2] | pIC50 [3] | SMILES |
| --- | --- | --- | --- |
| 4.29 | 5.82 | 5.96 | CCn1cc(C(=O)O)c(=O)c2cc(COCn3c(Cc4ccccc4)c(C(C)C)c(=O)[nH]c3=O)ccc21 |
| 4.46 | 6.66 | 6.72 | CC(C)c1c(Cc2ccccc2)n(COCc2ccc3[nH]cc(C(=O)O)c(=O)c3c2)c(=O)[nH]c1=O |
| 4.39 | 6.68 | 5.59 | CC(C)c1c(Cc2ccccc2)n(COCc2ccc3c(c2)c(=O)c(C(=O)O)cn3C)c(=O)[nH]c1=O |
| 4.72 | 5.66 | 5.43 | CC(C)c1c(Cc2ccccc2)n(COCc2ccc3c(c2)c(=O)c(C(=O)O)cn3CCO)c(=O)[nH]c1=O |
